Data as given in patent publication US9125407B2, “Compositions comprising an aryl pyrazole and a substituted imidazole, methods and uses thereof” (MERIAL LIMITED, priority 2011, dated 2015).

Legend:
[1] = test system: Rhipicephalus sanguineus; assay: Tick contact behavioral assay (TCBA), excitatory response in glass vials; details: 24 h post-treatment
Procedure: Another screening method used to test compounds of the present invention is the tick contact behavioral assay (TCBA). Compounds that elicit excitatory activity in ticks should increase their motility, thus increasing the parasite's chances of encountering fipronil if fipronil is present.
The TCBA was performed on Rhipicephalus sanguineus in glass vials. Briefly, a paper disc is treated with the desired amount of test compound and placed into the vial with approximately ten ticks. The ticks are observed for excitatory response but are not otherwise stimulated for evaluation.
From these observations, an EC50 for excitatory response is established. Observations were made at 4 h and 24 h post-treatment. […]

[2] = test system: Rhipicephalus sanguineus; assay: Tick mortality in combination with fipronil (25 ppm), 100% mortality at 6 hours; details: dose of compound combined with fipronil 25 ppm producing 100% mortality in 6 hours
Procedure: Observations were made at 4 h and 24 h post-treatment.
The compounds were then combined with fipronil (25 ppm) and tested for 100% mortality at 6 hours.

[3] = pH about 5.0 to about 6.0; cited from earlier work
[4] = 14C radiolabeled drug, spot-on, beagle dogs; cited from earlier work

SMILES	TCBA Assay EC50 (@ 24 h, ppm) [1] [ppm]	Fipronil combination (25 ppm) (6 h mortality) Dose (ppm) [2] [ppm]	stability at pH of about 5.0 to about 6.0 [3]	time persistently detected in whole skin after treatment [4]
Cc1cccc2c1C(c1ncc[nH]1)CC2 (centres unmarked) [1H-imidazole, 2-(2,3-dihydro-7-methyl-1H-inden-1-yl)]	6	–	–	–
Cc1cccc2c1CCCC2c1ncc[nH]1 (centres unmarked) [2-(5-methyl-1,2,3,4-tetrahydronaphthalen-1-yl)-1H-imidazole]	6	25	–	–
Cc1ccc(/N=C/N(C)/C=N/c2ccc(C)cc2C)c(C)c1 [Amitraz, amitraz]	1.6	12.5	degrade	–
N#Cc1nn(-c2c(Cl)cc(C(F)(F)F)cc2Cl)c(N)c1[S+]([O-])C(F)(F)F (centres unmarked) [fipronil, 5-amino-3-cyano-1-(2,6-dichloro-4-trifluoromethylphenyl)-4-trifluoromethylsulfinylpyrazole]	–	–	–	up to 56 days

More lines, main results first:

TCBA Assay EC50 (@ 24 h, ppm) [1] [ppm]	SMILES	Fipronil combination (25 ppm) (6 h mortality) Dose (ppm) [2] [ppm]	stability at pH of about 5.0 to about 6.0 [3]	time persistently detected in whole skin after treatment [4]
6	Cc1cccc2c1CCC2c1ncc[nH]1 (centres unmarked) [ML-449, 1H-imidazole, 2-(2,3-dihydro-4-methyl-1H-inden-1-yl)]	25	–	–
5	Cc1cccc(C(C)c2ncc[nH]2)c1C (centres unmarked) [demiditraz]	12.5	–	–
